Here are results for eleven compounds from PubChem BioAssay AID1259411 (Chemical Carcinogenesis Research Information System (CCRIS), 2018).

Calls of active or inactive are those of the source. No rule for the calls is given here.

The data set relates to rodent carcinogenicity bioassays, tumor incidence. Description: CCRIS carcinogenicity studies. In outline:
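NCI-built, expert-reviewed records of carcinogenicity and related test outcomes (mutagenicity, tumor promotion/inhibition) compiled from published and report sources, historical span 1985-2011, not updated.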

On to `CN1[C@@H]2CC[C@H]1CC(OC(=O)C(CO)c1ccccc1)C2` (some centres not stated), for which, where the note is “Species: RAT, Strain/Sex: SPRAGUE-DAWLEY/FEMALE, Route: INTRAPERITONEAL, Dose: 0, 25 UG/KG BW 2/D FOR 5 D TO VIRGIN FEMALE RATS (STUDY DURATION: 28 MO)”, the carcinogen call is “inactive; negative”.

With `CC[C@H]1NC(=O)[C@@H]2[C@H](Cl)[C@H](Cl)CN2C(=O)[C@@H](CO)NC(=O)C[C@H](c2ccccc2)NC(=O)[C@H](CO)NC1=O`, the carcinogen call (Species: MOUSE, Strain/Sex: DDNI/MALE, Route: ORAL, Dose: 0, 40, 60 UG IN DIET, 1/D FOR LIFE, Dose: 0, 40, 60 UG IN DIET, 1/D FOR LIFE, Tumor Site: Type of Lesion: HEMATOPOIETIC SYSTEM: RETICULOENDOTHELIOMA, LIVER: CARCINOMA, HEPATOCELLULAR ADENOMA) is “active; positive”.

`NNc1ccc(C(=O)O)cc1`: for the setting “Species: MOUSE, Strain/Sex: STRAIN-A/FEMALE, Route: ORAL, Dose: 0, 1000 PPM IN DRINKING WATER FOR 26 WK (STUDY DURATION: 26 WK)”, the carcinogen call was “inactive; negative”.

As to `CCCN(COC(C)=O)N=O`, the carcinogen call runs as follows: (Species: RAT, Strain/Sex: F344/FEMALE, Route: SUBCUTANEOUS, Dose: 6.1 MG/KG 1/WK FOR 10 WK, Tumor Site: Type of Lesion: INJECTION SITE: MALIGNANT FIBROUS HISTIOCYTOMA, LUNG: ADENOMA, ADENOCARCINOMA OR SQUAMOUS CELL CARCINOMA, THYROID GLAND:, Tumor Site: Type of Lesion: INJECTION SITE: MALIGNANT FIBROUS HISTIOCYTOMA, LUNG: ADENOMA, ADENOCARCINOMA OR SQUAMOUS CELL CARCINOMA, THYROID GLAND:) “active; positive”; (Species: RAT, Strain/Sex: F344/MALE, Route: SUBCUTANEOUS, Dose: 6.1 MG/KG 1/WK FOR 10 WK, Tumor Site: Type of Lesion: INJECTION SITE: MALIGNANT FIBROUS HISTIOCYTOMA, LUNG: ADENOMA, ADENOCARCINOMA OR SQUAMOUS CELL CARCINOMA) “active; positive”.

For the compound `C[N+]1(C)CCCCC1`, the carcinogen call (Species: Rat, Strain/Sex: Wistar/Female (50/Group), Route: Oral, Dose: 0, 17, 141, 370 mg/kg/day of 57.9% mepiquat chloride in diet for 24 mo, study duration 24 mo, Dose: 0, 17, 141, 370 mg/kg/day of 57.9% mepiquat chloride in diet for 24 mo, study duration 24 mo) was “inactive; negative” and the carcinogen call (Species: Rat, Strain/Sex: Wistar/Male (50/Group), Route: Oral, Dose: 0, 13, 105, 269 mg/kg/day of 57.9% mepiquat chloride in diet for 24 mo, study duration 24 mo, Dose: 0, 13, 105, 269 mg/kg/day of 57.9% mepiquat chloride in diet for 24 mo, study duration 24 mo) is “inactive; negative”.

`Brc1c(Br)c(Br)c(Oc2c(Br)c(Br)c(Br)c(Br)c2Br)c(Br)c1Br`: the carcinogen call (Species: MOUSE, Strain/Sex: B6C3F1/FEMALE, Route: ORAL, Dose: 0, 25000, 50000 PPM IN DIET FOR 103 WK (STUDY DURATION: 103 WK), Dose: 0, 25000, 50000 PPM IN DIET FOR 103 WK (STUDY DURATION: 103 WK)) was “inactive; negative”; the carcinogen call (Species: MOUSE, Strain/Sex: B6C3F1/MALE, Route: ORAL, Dose: 0, 25000, 50000 PPM IN DIET FOR 103 WK (STUDY DURATION: 103 WK), Dose: 0, 25000, 50000 PPM IN DIET FOR 103 WK (STUDY DURATION: 103 WK), Tumor Site: Type of Lesion: LIVER: HEPATOCELLULAR ADENOMA OR CARCINOMA, THYROID GLAND: FOLLICULAR CELL ADENOMA OR CARCINOMA) is on record as “equivocal”; the carcinogen call (Species: RAT, Strain/Sex: F344/FEMALE, Route: ORAL, Dose: 0, 25000, 50000 PPM IN DIET FOR 103 WK (STUDY DURATION: 103 WK), Dose: 0, 25000, 50000 PPM IN DIET FOR 103 WK (STUDY DURATION: 103 WK), Tumor Site: Type of Lesion: LIVER: NEOPLASTIC NODULE, NEOPLASTIC NODULE OR HEPATOCELLULAR CARCINOMA) was “active; positive”; the carcinogen call (Species: RAT, Strain/Sex: F344/MALE, Route: ORAL, Dose: 0, 25000, 50000 PPM IN DIET FOR 103 WK (STUDY DURATION: 103 WK), Dose: 0, 25000, 50000 PPM IN DIET FOR 103 WK (STUDY DURATION: 103 WK), Tumor Site: Type of Lesion: LIVER: NEOPLASTIC NODULE, NEOPLASTIC NODULE OR HEPATOCELLULAR CARCINOMA) is “active; positive”.

Turning to `O=C1OC(c2ccc(O)cc2)(c2ccc(O)cc2)c2ccccc21`, the carcinogen call (Species: MOUSE, Strain/Sex: B6C3F1/FEMALE, Route: ORAL, Dose: 0, 3000, 6000, 12000 PPM IN DIET FOR 2 YR (STUDY DURATION: 2 YR), Dose: 0, 3000, 6000, 12000 PPM IN DIET FOR 2 YR (STUDY DURATION: 2 YR), Tumor Site: Type of Lesion: OVARY: BENIGN SEX-CORD STROMAL TUMOR, LIVER: HISTIOCYTIC SARCOMA, LYMPHATIC SYSTEM: MALIGNANT LYMPHOMA, MALIGNANT LYMPHO, Tumor Site: Type of Lesion: OVARY: BENIGN SEX-CORD STROMAL TUMOR, LIVER: HISTIOCYTIC SARCOMA, LYMPHATIC SYSTEM: MALIGNANT LYMPHOMA, MALIGNANT LYMPHO) is “active; positive”; the carcinogen call (Species: MOUSE, Strain/Sex: B6C3F1/MALE, Route: ORAL, Dose: 0, 3000, 6000, 12000 PPM IN DIET FOR 2 YR (STUDY DURATION: 2 YR), Dose: 0, 3000, 6000, 12000 PPM IN DIET FOR 2 YR (STUDY DURATION: 2 YR), Tumor Site: Type of Lesion: LIVER: HISTIOCYTIC SARCOMA, LYMPHATIC SYSTEM: MALIGNANT LYMPHOMA (THYMIC ORIGIN)) is “active; positive”; the carcinogen call (Species: RAT, Strain/Sex: F344/FEMALE, Route: ORAL, Dose: 0, 12000, 25000, 50000 PPM IN DIET FOR 2 YR (STUDY DURATION: 2 YR), Dose: 0, 12000, 25000, 50000 PPM IN DIET FOR 2 YR (STUDY DURATION: 2 YR), Tumor Site: Type of Lesion: ADRENAL MEDULLA: BENIGN PHEOCHROMOCYTOMA, BENIGN OR MALIGNANT PHEOCHROMOCYTOMA) was “active; positive”; the carcinogen call (Species: RAT, Strain/Sex: F344/MALE, Route: ORAL, Dose: 0, 12000, 25000, 50000 PPM IN DIET FOR 2 YR (STUDY DURATION: 2 YR), Dose: 0, 12000, 25000, 50000 PPM IN DIET FOR 2 YR (STUDY DURATION: 2 YR), Tumor Site: Type of Lesion: ADRENAL MEDULLA: BENIGN PHEOCHROMOCYTOMA, KIDNEY(RENAL TUBULE): ADENOMA, ADENOMA OR CARCINOMA) is “active; positive”.

On to `O=Nc1ccc2ccccc2c1`, for which the carcinogen call (Species: MOUSE, Strain/Sex: SWISS/MALE, Route: SUBCUTANEOUS, Dose: 100 UG IN GELATIN ON FIRST, THIRD AND FIFTH D OF LIFE, Tumor Site: Type of Lesion: LIVER: HEPATOMA) was “active; positive”.

With `c1ccc2c(c1)ccc1cccnc12`, the carcinogen call runs as follows: (Species: RAT, Strain/Sex: SPRAGUE-DAWLEY/FEMALE, Route: SUBCUTANEOUS, Dose: 0, 200 UMOL/KG IN DMSO INTO SUPRASCAPULAR AREA ON DAY 1 OF LIFE FOLLOWED BY 0, 100 UMOL 1/WK AT WK 2-7 THEN O, 200 UMOL/, Dose: 0, 200 UMOL/KG IN DMSO INTO SUPRASCAPULAR AREA ON DAY 1 OF LIFE FOLLOWED BY 0, 100 UMOL 1/WK AT WK 2-7 THEN O, 200 UMOL/) “inactive; negative”; (Species: RAT, Strain/Sex: SPRAGUE-DAWLEY/MALE, Route: SUBCUTANEOUS, Dose: 0, 200 UMOL/KG IN DMSO INTO SUPRASCAPULAR AREA ON DAY 1 OF LIFE FOLLOWED BY 0, 100 UMOL 1/WK AT WK 2-7 THEN O, 200 UMOL/, Dose: 0, 200 UMOL/KG IN DMSO INTO SUPRASCAPULAR AREA ON DAY 1 OF LIFE FOLLOWED BY 0, 100 UMOL 1/WK AT WK 2-7 THEN O, 200 UMOL/) “inactive; negative”.

As to `CCNN`, the carcinogen call by setting is: (Species: MOUSE, Strain/Sex: SWISS/FEMALE, Route: ORAL, Dose: 0, 0.0125% IN DRINKING WATER FOR LIFE FOR AN AVERAGE DAILY DOSE OF 0, 0.92 MG (STUDY DURATION: 130 WK), Dose: 0, 0.0125% IN DRINKING WATER FOR LIFE FOR AN AVERAGE DAILY DOSE OF 0, 0.92 MG (STUDY DURATION: 130 WK), Tumor Site: Type of Lesion: LUNG: ADENOMA OR ADENOCARCINOMA, BLOOD VESSEL: ANGIOSARCOMA OR ANGIOMA) “active; positive”; (Species: MOUSE, Strain/Sex: SWISS/MALE, Route: ORAL, Dose: 0, 0.0125% IN DRINKING WATER FOR LIFE FOR AN AVERAGE DAILY DOSE OF 0, 1.52 MG (STUDY DURATION: 130 WK), Dose: 0, 0.0125% IN DRINKING WATER FOR LIFE FOR AN AVERAGE DAILY DOSE OF 0, 1.52 MG (STUDY DURATION: 130 WK), Tumor Site: Type of Lesion: LUNG: ADENOMA OR ADENOCARCINOMA, BLOOD VESSEL: ANGIOSARCOMA OR ANGIOMA) “active; positive”.

For the compound `C1COCCN1`, the carcinogen call (Species: RAT, Strain/Sex: SPRAGUE-DAWLEY/FEMALE, Route: INHALATION, Dose: 0, 10, 50, 150 PPM 6 HR/D 5 D/WK FOR 104 WK (STUDY DURATION: 105 WK), Dose: 0, 10, 50, 150 PPM 6 HR/D 5 D/WK FOR 104 WK (STUDY DURATION: 105 WK)) was “inactive; negative” and the carcinogen call (Species: RAT, Strain/Sex: SPRAGUE-DAWLEY/MALE, Route: INHALATION, Dose: 0, 10, 50, 150 PPM 6 HR/D 5 D/WK FOR 104 WK (STUDY DURATION: 105 WK), Dose: 0, 10, 50, 150 PPM 6 HR/D 5 D/WK FOR 104 WK (STUDY DURATION: 105 WK)) was “inactive; negative”.
